Measured values taken from publication PMC4834188, “Benzyl-1,2,4-triazoles as CB1 Cannabinoid Receptor Ligands: Preparation and In Vitro Pharmacological Evaluation” (International Journal of Medicinal Chemistry, 2016).
“Also recorded” adds a separate entry of the source.

Legend:
obese animals = test system: obese animals; parameters: method as in PMID 16750544, PMID 18426510, PMID 21951309; settings: cited from earlier work
CB1R [1] = target: T1, CB1R (Rattus norvegicus, UniProt P20272); experiment: CB1R radioligand binding assay versus [3H]-SR141716A in rat cerebellar membranes; settings: for Ki: radioligand [3H]-SR141716, mean ± standard error, three independent experiments in triplicate, read-out: K i (nM) CB1R versus [^3H]-SR141617; for CB1R affinity (in words): radioligand not given
T1 construct: from tissue; host or cells: rat cerebellum (membranes)
From the text: (§1) Radioligand Binding Assays. […] Competitive radioligand binding assays have been used to evaluate the affinity of selected synthetized triazoles to CB1R in rat cerebellar membranes.

CB1R [2] = target: T1, CB1R; experiment: CB1R radioligand binding assay versus [3H]-WIN552122 in rat cerebellar membranes
From the text: as §1

T1 sequence (P20272 whole entry): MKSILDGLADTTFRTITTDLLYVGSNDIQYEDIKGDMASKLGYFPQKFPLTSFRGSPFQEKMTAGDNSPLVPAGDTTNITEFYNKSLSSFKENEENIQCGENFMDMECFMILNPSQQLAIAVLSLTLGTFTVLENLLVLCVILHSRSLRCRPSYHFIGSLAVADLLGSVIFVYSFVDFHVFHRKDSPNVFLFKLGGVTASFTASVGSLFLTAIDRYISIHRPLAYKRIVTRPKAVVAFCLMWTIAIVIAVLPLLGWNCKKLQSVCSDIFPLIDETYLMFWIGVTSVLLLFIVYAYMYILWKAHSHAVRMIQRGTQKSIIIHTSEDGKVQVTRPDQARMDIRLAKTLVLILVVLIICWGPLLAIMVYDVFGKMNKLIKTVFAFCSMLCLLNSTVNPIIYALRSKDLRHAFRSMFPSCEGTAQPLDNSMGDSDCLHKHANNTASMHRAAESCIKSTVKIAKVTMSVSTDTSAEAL

Row | Compound | CB1R affinity (in words) (CB1R [1]) | melting point | further results
1 | CCCCCCc1nc(-c2ccc(Cl)cc2)n(-c2ccc(Cl)cc2Cl)n1 [LH21, 5-(4-chlorophenyl)-1-(2,4-dichlorophenyl)-3-hexyl-1H-1,2,4-triazole, reference compound] | – | – | antiobesity activity in in vivo assays (obese animals): exhibited antiobesity activity; Ki (CB1R [1]): 856 ± 296 nM; Ki (CB1R [2]; read-out: K i (nM) CB1R versus [^3H]-WIN552122, radioligand [3H]-WIN552122, mean ± standard error, three independent experiments in triplicate): 748 ± 193 nM
2 | CCCCCCCc1nc(-c2ccccc2)nn1Cc1ccc(Cl)cc1 [Compound 8a, 1-(4-Chlorobenzyl)-5-heptyl-3-phenyl-1H-1,2,4-triazole] | moderate CB1R affinity | – | –
3 | CCCCCCCc1nc(-c2ccccc2)n(Cc2ccc(Cl)cc2Cl)n1 [Compound 9b, 1-(2,4-Dichloro-benzyl)-3-heptyl-5-phenyl-1H-1,2,4-triazole] | – | 70 to 73 °C | –
4 | CCCCCCCc1nc(-c2ccc(Cl)cc2)nn1Cc1ccc(Cl)cc1Cl [Compound 12a, 3-(4-Chlorophenyl)-1-(2,4-dichlorobenzyl)-5-heptyl-1H-1,2,4-triazole] | CB1R affinity in the nanomolar range; also recorded: high affinity for CB1R | – | Ki (CB1R [1]): 13.9 nM; K i (nM) CB1R versus [^3H]-WIN552122 (CB1R [2]; radioligand [3H]-WIN552122, mean ± standard error, three independent experiments in triplicate): 323 nM
5 | CCCCCCCc1nc(-c2ccncc2)n(Cc2ccc(Cl)cc2Cl)n1 [Compound 15b, 4-[1-(2,4-Dichlorobenzyl)-3-heptyl-1H-1,2,4-triazol-5-yl]pyridine] | – | 104 to 105 °C | –
6 | CCCCCCCc1nc(-c2ccccc2)nn1Cc1ccccc1 [Compound 7a, 1-Benzyl-5-heptyl-3-phenyl-1H-1,2,4-triazole] | moderate CB1R affinity | – | –
7 | CCCCCCCc1nc(-c2cc[n+](C)cc2)nn1Cc1ccc(Cl)cc1Cl.[I-] [Compound 18, 4-[1-(2,4-Dichlorobenzyl)-5-heptyl-1H-1,2,4-triazol-3-yl]-1-methylpyridinium Iodide] | – | 136 to 138 °C | –
8 | CCCCCCCc1nc(-c2ccc(Cl)cc2)n(Cc2ccc(Cl)cc2Cl)n1 [Compound 12b, 5-(4-Chlorophenyl)-1-(2,4-dichlorobenzyl)-3-heptyl-1H-1,2,4-triazole] | – | 97 to 99 °C | –
9 | CCCCCCCc1nc(-c2ccc(Cl)cc2)nn1Cc1ccc(Cl)cc1 [Compound 11a, 1-(4-Chlorobenzyl)-3-(4-chlorophenyl)-5-heptyl-1H-1,2,4-triazole] | moderate CB1R affinity | – | –
10 | CCCCCCCc1nc(-c2ccc(Cl)cc2)nn1Cc1ccccc1 [Compound 10a, 1-Benzyl-3-(4-chlorophenyl)-5-heptyl-1H-1,2,4-triazole] | moderate CB1R affinity | – | –
